Tests used:
furin [1] = target: T1, furin (Homo sapiens, UniProt P09958); format: biochemical
furin [2] = target: T1, furin; assay: enzyme inhibition at a single concentration of […]; format: biochemical; settings: read-out: % inhibition at 100 μM

T1 sequence (P09958 108-794): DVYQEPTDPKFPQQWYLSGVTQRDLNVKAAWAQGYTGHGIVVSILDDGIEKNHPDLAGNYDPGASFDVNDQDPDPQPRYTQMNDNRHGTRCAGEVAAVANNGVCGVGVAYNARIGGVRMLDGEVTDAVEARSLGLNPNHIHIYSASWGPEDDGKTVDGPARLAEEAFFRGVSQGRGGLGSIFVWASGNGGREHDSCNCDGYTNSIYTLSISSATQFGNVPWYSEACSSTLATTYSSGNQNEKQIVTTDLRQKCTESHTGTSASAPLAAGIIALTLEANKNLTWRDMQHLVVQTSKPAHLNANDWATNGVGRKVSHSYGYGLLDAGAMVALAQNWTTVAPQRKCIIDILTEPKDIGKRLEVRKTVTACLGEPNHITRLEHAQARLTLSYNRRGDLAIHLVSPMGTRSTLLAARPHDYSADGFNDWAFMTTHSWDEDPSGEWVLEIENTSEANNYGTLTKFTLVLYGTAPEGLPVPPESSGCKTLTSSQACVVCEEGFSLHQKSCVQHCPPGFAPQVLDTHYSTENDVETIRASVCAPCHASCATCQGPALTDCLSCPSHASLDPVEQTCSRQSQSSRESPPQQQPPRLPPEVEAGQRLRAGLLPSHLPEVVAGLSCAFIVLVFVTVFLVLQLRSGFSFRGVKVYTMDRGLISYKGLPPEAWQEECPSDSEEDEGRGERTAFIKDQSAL

| SMILES | IC50 (furin [1]) | inhibition at 100 µM (furin [2]) |
| --- | --- | --- |
| N=C(N)c1ccc(/N=N/Nc2ccc(C(=N)N)cc2)cc1 [diminazene] | 5.42 ± 0.11 µM |  |
| CN(Cc1cnc2nc(N)nc(N)c2n1)c1ccc(C(=O)N[C@@H](CCC(=O)O)C(=O)O)cc1 [methotrexate] |  | > 70% |
| COc1cc(C2Oc3cc([C@H]4Oc5cc(O)cc(O)c5C(=O)[C@@H]4O)ccc3OC2CO)ccc1O (stereo partly shown) [silybin] |  | > 70% |
| Nc1nc(N)c2nc(CNc3ccc(C(=O)N[C@@H](CCC(=O)O)C(=O)O)cc3)cnc2n1 [aminopterin] |  | > 70% |

— article PMC7534598 (iScience, 2020)
